Experimental findings from article PMC7757987, “Antitumor Activity and Mechanism Study of Riluzole and Its Derivatives” (Iranian Journal of Pharmaceutical Research : IJPR, 2020) are described below.

Data set [1] concerns MCF-7 (human breast cancer cell line). The data set can be described thus: CCK-8 anti-proliferative assay, MCF-7. It is filed as cell-based. Particulars: for IC50: Homo sapiens, MCF7, CCK-8, 48 h; for Selectivity index (SI) MCF-7: IC50 LO2 / IC50 MCF-7. Here is the method:
(§1) HeLa (human cervical cancer cell line), HepG2 (human liver cancer cell line), SP2/0 (mouse myeloma cell line), and LO2 (human normal liver cell line) were cultured in DMEM medium. Each medium was supplemented with 10% fetal bovine serum, 1% L-glutamine and 1% penicillin/streptomycin solution. The cell lines were kept in the incubator at 37 ℃ in a humidified atmosphere (90% RH) containing 5% CO2. […] The cell lines SP2/0 and MCF-7 were obtained from Laboratory Center of Shaanxi Province People’s Hospital.
(§2) 2×10^3 cells per well were planted into 96-well plates in 100 μL growth medium and incubated for 24 h. […] The mixture was incubated at 37 ℃ under a humidified 5% CO2 atmosphere. After incubation, 10 μL CCK-8 solution was added to each well and the cells were further incubated for 2 h at 37 ℃ according to the CCK-8 Technical Manual. Then, the OD value for each well was read at wavelength 450 nm to determine the cell viability on a microplate reader (Synergy HT, USA). […] The independent experiment was repeated at least three times. The percentage of growth inhibition was calculated as follows according to reference ([18]),
(§3) % of growth inhibition = [1 - absorbance of treated cells/absorbance of untreated cells] × 100%
Background: Formazan colour is commonly taken as a measure of viable cells.

In data set [2] the test system is HeLa (human cervical cancer cell line). Kind of data set: CCK-8 anti-proliferative assay, HeLa. The data set is classed as cell-based. The settings on record: for IC50: Homo sapiens, HeLa, CCK-8, 48 h, read-out: Cytotoxicity (IC50) HeLa; for Selectivity index (SI) HeLa: IC50 LO2 / IC50 HeLa. The method, then:
as §1, §2, §3

For data set [3], the system named is HepG2 (human liver cancer cell line). Kind of data set: CCK-8 anti-proliferative assay, HepG2. Particulars: for IC50: Homo sapiens, HepG2, CCK-8, 48 h, read-out: Cytotoxicity (IC50) HepG2; for Selectivity index (SI) HepG2: IC50 LO2 / IC50 HepG2. It is filed as cell-based. The method, then: as §1, §2, §3
For data set [4], the system named is SP2/0 (mouse myeloma cell line). Kind of data set: CCK-8 anti-proliferative assay, SP2/0. The data set is classed as cell-based. Particulars: for Selectivity index (SI) SP2/0: IC50 LO2 / IC50 SP2/0; for IC50: Mus musculus, CCK-8, 48 h, read-out: Cytotoxicity (IC50) SP2/0. Here is the method:
as §1, §2, §3

Data set [5] in a line: CCK-8 cytotoxicity assay, normal LO2 cells. It is filed as cell-based, human. The settings on record: human, LO2 normal liver cells; CCK-8, 48 h, normal liver cells; read-out: Cytotoxicity (IC50) L02. Here is the method:
as §1, §2, §3

Data set [6] deals with HeLa, HepG2, SP2/0 and MCF-7. Kind of data set: CCK-8 anti-proliferative assay, all examined cancer cell lines. The data set is classed as cell-based. Particulars: HepG2, SP2/0, MCF-7, CCK-8, 48 h. Here is the method:
MCF-7 (breast cancer cell line) was cultured in RPMI-1640 medium. HeLa (human cervical cancer cell line), HepG2 (human liver cancer cell line), SP2/0 (mouse myeloma cell line), and LO2 (human normal liver cell line) were cultured in DMEM medium. Each medium was supplemented with 10% fetal bovine serum, 1% L-glutamine and 1% penicillin/streptomycin solution. The cell lines were kept in the incubator at 37 ℃ in a humidified atmosphere (90% RH) containing 5% CO2. […] The cell lines SP2/0 and MCF-7 were obtained from Laboratory Center of Shaanxi Province People’s Hospital.
2×10^3 cells per well were planted into 96-well plates in 100 μL growth medium and incubated for 24 h. Then, the cells were exposed to each compound in growth medium (DMSO< 0.5%) at five different concentrations (1.23, 3.70, 11.11, 33.33, and 100 μmol/L) for 48 h. The mixture was incubated at 37 ℃ under a humidified 5% CO2 atmosphere. After incubation, 10 μL CCK-8 solution was added to each well and the cells were further incubated for 2 h at 37 ℃ according to the CCK-8 Technical Manual. Then, the OD value for each well was read at wavelength 450 nm to determine the cell viability on a microplate reader (Synergy HT, USA). […] The independent experiment was repeated at least three times. The percentage of growth inhibition was calculated as follows according to reference ([18]),
as §3

Setting [7] is: read-out: Cytotoxicity (IC50) MCF-7.

Structures are written as SMILES. Read-outs that look alike come from different tables or passages of the source.

Take `FC(F)(F)Oc1ccc2nc(NC3CCCCC3)sc2c1` [Compound 4e]: the melting point (in general, the temperature of the solid-liquid transition) lay in the range of 96 to 97 °C. Moreover, the IC50 in data set [1] (setting [7]) amounted to 20.5 ± 1.09 µM. For the same compound, in data set [1], the “Selectivity index (SI) MCF-7” value amounted to 1.65. In addition, in data set [2], the IC50 came to 20.9 ± 0.98 µM and the “Selectivity index (SI) HeLa” value was 1.62. In data set [3], the IC50 turned out to be 20.2 ± 0.93 µM and the “Selectivity index (SI) HepG2” value is on record as 1.67. In data set [4], the “Selectivity index (SI) SP2/0” value is recorded as 1.91 and the IC50 worked out at 17.7 ± 0.81 µM. The IC50 at 48 h in data set [5] was determined as 33.8 ± 2.4 µM.

Compound `FC(F)(F)Oc1ccc2nc(Cl)sc2c1` [Compound 3, 2-chloro-6-trifluoromethoxy-benzothiazole] had a melting point of 38 to 39 °C. Also, the IC50 in data set [6] is more than 100 µM. In data set [1] (setting [7]), the IC50 was more than 100 µM. The IC50 in data set [2] was more than 100 µM. Besides, the IC50 in data set [3] is more than 100 µM. Further, the IC50 in data set [4] is more than 100 µM. Further, the IC50 at 48 h in data set [5] was found to be 100 ± 6.07 µM.

In turn, `FC(F)(F)Oc1ccc2nc(N3CCOCC3)sc2c1` [Compound 4h, (N-morpholine)-6-trifluoromethoxy-benzothiazole] had a melting point of 103 to 105 °C. The IC50 in data set [6] is more than 100 µM. In addition, the IC50 in data set [1] (setting [7]) is more than 100 µM. In addition, the IC50 in data set [2] was more than 100 µM. Also, the IC50 in data set [3] is more than 100 µM. Moreover, the IC50 in data set [4] came to 98.7 ± 3.28 µM. In addition, the IC50 at 48 h in data set [5] was more than 100 µM.

`CCCNc1nc2ccc(OC(F)(F)F)cc2s1` [Compound 4b]: the melting point lay in the range of 88 to 89 °C. In addition, in data set [1] (setting [7]), the IC50 turned out to be 12.9 ± 0.69 µM. In data set [1], the “Selectivity index (SI) MCF-7” value turned out to be 2.50. Besides, in data set [2], the IC50 stood at 30.1 ± 1.28 µM and the “Selectivity index (SI) HeLa” value came to 1.07. Besides, in data set [3], the IC50 was determined as 18 ± 0.88 µM and the “Selectivity index (SI) HepG2” value came out at 1.79. Further, in data set [4], the “Selectivity index (SI) SP2/0” value came to 0.69 and the IC50 worked out at 46.4 ± 3.62 µM. The IC50 at 48 h in data set [5] was 32.2 ± 3.03 µM.

Consider `CC1CCN(c2nc3ccc(OC(F)(F)F)cc3s2)CC1` [Compound 4i, 2-(N-4-methyl-1-piperidinyl)-6-trifluoromethoxy-benzothiazole], for which the melting point lay in the range of 77 to 78 °C. Also, the IC50 in data set [1] (setting [7]) is more than 100 µM. Further, in data set [1] (read-out: IC50 in MCF-7 cells), the IC50 is 11.5 µM. Moreover, in data set [2], the IC50 is more than 100 µM. The IC50 in data set [3] was more than 100 µM. Also, in data set [4], the “Selectivity index (SI) SP2/0” value was found to be 9.68 and the IC50 amounted to 11.5 ± 0.85 µM. Besides, the IC50 at 48 h in data set [5] was more than 100 µM.

As to `CNC(=O)c1cc(Oc2ccc(NC(=O)Nc3ccc(Cl)c(C(F)(F)F)c3)cc2)ccn1` [Sorafenib, reference compound], the IC50 was determined as 7.66 ± 0.73 µM in data set [1] (setting [7]), 5.16 ± 0.62 µM in data set [2], 12 ± 2.12 µM in data set [3] and 4.25 ± 0.75 µM in data set [4]. Further, the IC50 at 48 h in data set [5] came out at 11.9 ± 0.32 µM.

`FC(F)(F)Oc1ccc2nc(N3CCCC3)sc2c1` [Compound 4f, (N-pyrrolidine)-6-trifluoromethoxy-benzothiazole] showed a melting point of 129 to 130 °C. In data set [6], the IC50 is more than 100 µM. The IC50 in data set [1] (setting [7]) was more than 100 µM. The IC50 in data set [2] was more than 100 µM. Moreover, in data set [3], the IC50 is more than 100 µM. Also, in data set [4], the IC50 was more than 100 µM. Besides, the IC50 at 48 h in data set [5] was determined as 65.2 ± 3.53 µM.

Compound `CCCCNc1nc2ccc(OC(F)(F)F)cc2s1` [Compound 4c] returned a melting point of 76 to 78 °C. Moreover, the IC50 in data set [1] (setting [7]) amounted to 21.9 ± 0.97 µM. Also, the “Selectivity index (SI) MCF-7” value in data set [1] is listed as 1.17. Moreover, in data set [2], the IC50 was 16.7 ± 0.94 µM and the “Selectivity index (SI) HeLa” value is 1.53. In addition, in data set [3], the IC50 is more than 100 µM. In data set [4], the “Selectivity index (SI) SP2/0” value turned out to be 0.43 and the IC50 worked out at 59 ± 3.32 µM. Further, the IC50 at 48 h in data set [5] came to 25.6 ± 3.12 µM.

The compound `FC(F)(F)Oc1ccc2nc(N3CCCCC3)sc2c1` [Compound 4g, 2-(N-piperidine)-6-trifluoromethoxy-benzothiazole] yielded a melting point of 74 to 75 °C. In addition, the IC50 in data set [1] (setting [7]) is 25.8 ± 1.21 µM. For the same compound, the “Selectivity index (SI) MCF-7” value in data set [1] turned out to be 5.20. Moreover, in data set [2], the IC50 was more than 100 µM. For the same compound, the IC50 in data set [3] is more than 100 µM. In addition, in data set [4], the “Selectivity index (SI) SP2/0” value is 4.12 and the IC50 came out at 32.6 ± 1.44 µM. Further, in data set [5], the IC50 at 48 h was more than 100 µM.

Regarding `CCN(CC)c1nc2ccc(OC(F)(F)F)cc2s1` [Compound 4d, (N-diaethylamine)-6-trifluoromethoxy-benzothiazole], the melting point was in the range of 38 to 39 °C. Besides, the IC50 in data set [1] (setting [7]) is 46.6 ± 2.77 µM. For the same compound, in data set [2], the IC50 is more than 100 µM. For the same compound, the IC50 in data set [3] is more than 100 µM. Moreover, in data set [4], the IC50 is 48.5 ± 3.41 µM. Besides, in data set [5], the IC50 at 48 h was more than 100 µM.
